Assay results: patent US9376694B2, “Method for preparing optically active amino acid using cosubstrate shuttling of transaminase” (INDUSTRY-ACADEMIC COOPERATION FOUNDATION, YONSEI UNIVERSITY, priority 2012, dated 2016)
“And” between values parts separate entries of the source, which are not always exact repeats. Equal entries are not always repeated.

Columns and labels:
[1] = molecular target: T1, branched-chain transaminase (Escherichia coli, UniProt P0AB80); assay: Substrate specificity of purified branched-chain transaminase for keto acids; assay type: biochemical, E. coli; details: for Concentration of 2-oxobutyrate: purified enzyme (1 U/mL), 20 mM L-homoalanine, 20 mM keto acid, pH 7.0, 37° C., 7 hours
T1 construct: made in house; host or cells: E. coli BL21(DE3)
T1 sequence (P0AB80 whole entry): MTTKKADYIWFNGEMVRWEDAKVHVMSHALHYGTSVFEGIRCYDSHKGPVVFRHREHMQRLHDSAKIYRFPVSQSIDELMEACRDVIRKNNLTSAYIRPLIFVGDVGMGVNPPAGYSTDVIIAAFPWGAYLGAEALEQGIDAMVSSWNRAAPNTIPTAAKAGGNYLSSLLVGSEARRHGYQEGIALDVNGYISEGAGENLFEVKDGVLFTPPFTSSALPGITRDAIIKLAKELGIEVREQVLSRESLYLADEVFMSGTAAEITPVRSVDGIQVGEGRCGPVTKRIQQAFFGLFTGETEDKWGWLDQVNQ
Method: Reaction was conducted using the branched-chain transaminase purified in Example 3 and using various L-amino acids and keto acids described in [Table 3] as substrates. After adding 10 μL of the purified enzyme (1 U/mL) to 100 μL of a mixture of 20 mM L-homoalanine, 20 mM keto acid and 50 mM potassium phosphate (pH 7.0), reaction was conducted at 37° C. for 7 hours and the amount of produced 2-oxobutyrate (keto acid of L-homoalanine) was measured. The result is shown in [Table 3].
When trimethylpyruvate and L-homoalanine were used as substrates, the equilibrium constant of the reaction by the branched-chain transaminase was very low at 0.16.

[2] = system: ω-transaminase derived from Paracoccus denitrificans (PdwTA); assay: Substrate specificity of purified ω-transaminase for keto acids, PdwTA; assay type: biochemical; details: purified enzyme (6 U/mL); 20 mM keto acid, 20 mM (S)-α-methylbenzylamine, pH 7.0, 37° C., 6 hours
Method: (§1) Reaction was conducted using the ω-transaminase purified in Example 3 and using various keto acids and amine as substrates as described in [Table 6]. After adding 10 μL of the purified enzyme (6 U/mL) to 100 μL of a mixture of 20 mM keto acid, 20 mM (S)-α-methylbenzylamine and 50 mM potassium phosphate (pH 7.0), reaction was conducted at 37° C. for 6 hours and the amount of produced acetophenone (deaminated ketone of (S)-α-methylbenzylamine) was measured. The result was compared with that of the ω-transaminase derived from Ochrobactrum anthropi. The result is shown in [Table 6].

[3] = system: ω-transaminase derived from Ochrobactrum anthropi; assay: Substrate specificity of purified ω-transaminase for keto acids, OawTA; assay type: biochemical; details: 20 mM keto acid, 20 mM (S)-α-methylbenzylamine, pH 7.0, 37° C., 6 hours
Method: as §1

[4] = system: ω-transaminase derived from Paracoccus denitrificans (PdwTA); assay: Substrate specificity of purified ω-transaminase for keto acids in initial stage of reaction, PdwTA; assay type: biochemical; parameters: unit not given here; details: purified enzyme (1 U/mL); 20 mM keto acid, 20 mM (S)-α-methylbenzylamine, pH 7.0, 37° C., 10 minutes
Method: as §1, with “7].” for “6].”, “(1” for “(6”, “10 minutes” for “6 hours”

[5] = system: ω-transaminase derived from Ochrobactrum anthropi; assay: Substrate specificity of purified ω-transaminase for keto acids in initial stage of reaction, OawTA; assay type: biochemical; parameters: unit not given here; details: 20 mM keto acid, 20 mM (S)-α-methylbenzylamine, pH 7.0, 37° C., 10 minutes
Method: as §1, with “7].” for “6].”, “(1” for “(6”, “10 minutes” for “6 hours”

[6] = system: ω-transaminase derived from Paracoccus denitrificans (PdwTA); assay: Substrate specificity of purified ω-transaminase for amino acids (glyoxylate acceptor), PdwTA; assay type: biochemical; details: purified enzyme (5 U/mL); 20 mM glyoxylate, 20 mM L-amino acid, pH 7.0, 37° C., 6 hours; reaction conducted 3 times
Method: (§2) Reaction was conducted using the ω-transaminase purified in Example 3 and using various L-amino acids and […] as substrates as described in [Table 5]. After adding 10 μL of the purified enzyme (5 U/mL) to 100 μL of a mixture of 20 mM glyoxylate, 20 mM L-amino acid and 50 mM potassium phosphate (pH 7.0), reaction was conducted at 37° C. for 6 hours and the amount of produced L-glycine was measured. The reaction was conducted 3 times and the result was compared with that of the ω-transaminase derived from Ochrobactrum anthropi. The result is shown in [Table 5].

[7] = molecular target: T1, branched-chain transaminase; assay: Substrate specificity of branched-chain transaminase for amino acids with trimethylpyruvate, crude extract; assay type: biochemical, E. coli; details: 20 mM trimethylpyruvate, 20 mM L-amino acid, pH 7.0, 37° C., 2 hours
Method: Reaction was conducted using the crude extract containing the branched-chain transaminase obtained in Example 3 and using various trimethylpyruvate (keto acid of L-tert-leucine) as substrates. After adding 100 μL of the crude extract to 200 μL of a mixture of 20 mM trimethylpyruvate, 20 mM L-amino acid and 50 mM potassium phosphate (pH 7.0), reaction was conducted at 37° C. for 2 hours and the amount of produced L-tert-leucine was measured. The result is shown in [Table 2].

[8] = molecular target: T1, branched-chain transaminase; assay: Substrate specificity of purified branched-chain transaminase for amino acids with trimethylpyruvate; assay type: biochemical, E. coli; details: purified enzyme (6 U/mL); 20 mM trimethylpyruvate, 20 mM L-amino acid, pH 7.0, 37° C., 6 hours
Method: Reaction was conducted using the branched-chain transaminase purified in Example 3 and using various L-amino acids and trimethylpyruvate as substrates as described in [Table 4]. After adding 10 μL of the purified enzyme (6 U/mL) to 100 μL of a mixture of 20 mM trimethylpyruvate, 20 mM L-amino acid and 50 mM potassium phosphate (pH 7.0), reaction was conducted at 37° C. for 6 hours and the amount of produced L-tert-leucine was measured. The result is shown in [Table 4].

[9] = system: ω-transaminase derived from Ochrobactrum anthropi; assay: Substrate specificity of purified ω-transaminase for amino acids (glyoxylate acceptor), OawTA; assay type: biochemical; details: 20 mM glyoxylate, 20 mM L-amino acid, pH 7.0, 37° C., 6 hours
Method: as §2

[10] = molecular target: T1, branched-chain transaminase; assay: Substrate specificity of branched-chain transaminase for amino acids, enzyme-containing crude extract; assay type: biochemical, E. coli; details: 20 mM L-amino acid, pH 7.0, 37° C., 30 minutes
Method: Reaction was conducted using the crude extract containing the branched-chain transaminase obtained in Example 3 and using various L-amino acids and keto acids described in [Table 1] as substrates. After adding 20 μL of the crude extract to 200 μL of a mixture of 20 mM L-amino acid, 20 mM keto acid and 50 mM potassium phosphate (pH 7.0), reaction was conducted at 37° C. for 30 minutes and the amount of produced L-amino acid was measured. The result is shown in [Table 1].

[11] = 20 mM α-ketoglutarate as keto acid

Row | SMILES | amount of produced acetophenone, PdwTA [4] | amount of produced acetophenone, OawTA [5] | Concentration of L-glycine, PdwTA [6] | Concentration of L-tert-leucine [8] | Concentration of L-glycine, OawTA [9] | also measured
1 | O=C(O)C(=O)C12CC3CC(CC(O)(C3)C1)C2 [2-(3-Hydroxy-1-adamantyl)-2-oxoethanoic acid] |  |  |  |  |  | Concentration of 2-oxobutyrate [1]: 5.47 mM
2 | CCC(=O)C(=O)O [2-Oxobutyrate] | 0.821 | 0.173 |  |  |  | Concentration of acetophenone, PdwTA [2]: 5.03 mM; Concentration of acetophenone, OawTA [3]: 5.05 mM
3 | CCCCC(=O)C(=O)O [2-Oxohexanoic acid] | 0.713 | 0.006 |  |  |  | Concentration of acetophenone, PdwTA [2]: 5.22 mM; Concentration of acetophenone, OawTA [3]: 3.07 mM
4 | CCCC(=O)C(=O)O [2-Oxopentanoic acid] | 1.332 | 0.378 |  |  |  | Concentration of acetophenone, PdwTA [2]: 5.24 mM; Concentration of acetophenone, OawTA [3]: 3.45 mM
5 | CC(C)C(=O)C(=O)O [3-Methyl-2-oxobutyrate] |  |  |  |  |  | Concentration of acetophenone, PdwTA [2]: 0.00 mM; Concentration of acetophenone, OawTA [3]: 0.00 mM; Concentration of 2-oxobutyrate [1]: 11.93 mM
6 | CCC(C)C(=O)C(=O)O (centres unmarked) [3-Methyl-2-oxoxpentanoic acid] |  |  |  |  |  | Concentration of acetophenone, PdwTA [2]: 0.00 mM; Concentration of acetophenone, OawTA [3]: 0.00 mM; Concentration of 2-oxobutyrate [1]: 8.49 mM
7 | CC(C)CC(=O)C(=O)O [4-Methyl-2-oxopentanoic acid] | 0.175 | 0.005 |  |  |  | Concentration of acetophenone, PdwTA [2]: 4.99 mM; Concentration of acetophenone, OawTA [3]: 0.03 mM; Concentration of 2-oxobutyrate [1]: 7.27 mM
8 | O=C(O)C(=O)CF [Fluoropyruvate] | 0.339 | 0.554 |  |  |  | 
9 | O=CC(=O)O [Gyloxylate] | 1.076 | 1.733 |  |  |  | 
10 | C[C@H](N)C(=O)O [L-Alanine] |  |  | 13.92 mM and 13.31 mM and 11.61 mM | 2.24 mM and 2.07 mM and 2.23 mM | 11.73 mM | Production amount of L-tert-leucine [7]: 0.8 mM
11 | N[C@@H](CCC(=O)O)C(=O)O [L-Glutamate] |  |  |  |  |  | Production amount of L-tert-leucine [7]: 6.4 mM; Production amount of L-amino acid ([10]; 20 mM 2-oxobutyrate as keto acid): 4.2 mM
12 | CC[C@H](N)C(=O)O [L-Homoalanine] |  |  | 12.56 mM and 13.31 mM and 11.26 mM | 5.57 mM and 4.43 mM and 5.71 mM | 4.97 mM | Production amount of L-tert-leucine [7]: 7.2 mM; Production amount of L-amino acid [10, 11]: 0.1 mM
13 | CC[C@H](C)[C@H](N)C(=O)O [L-Isoleucine] |  |  | 0.00 mM | 7.79 mM and 7.48 mM and 6.51 mM | 0.00 mM | Production amount of L-tert-leucine [7]: 9.2 mM; Production amount of L-amino acid [10, 11]: 2.6 mM
14 | CC(C)C[C@H](N)C(=O)O [L-Leucine] |  |  | 7.93 mM and 7.95 mM and 5.71 mM | 6.71 mM and 6.32 mM and 7.06 mM | 0.00 mM | 
15 | CCCC[C@H](N)C(=O)O [L-Norleucine] |  |  | 13.41 mM and 12.97 mM and 12.59 mM | 5.90 mM and 5.48 mM and 5.55 mM | 0.28 mM | 
16 | CCC[C@H](N)C(=O)O [L-Norvaline] |  |  | 13.43 mM and 14.29 mM and 14.12 mM | 6.31 mM and 5.34 mM and 6.06 mM | 0.36 mM | 
17 | CC(C)[C@H](N)C(=O)O [L-Valine] |  |  | 0.18 mM and 0.20 mM and 0.17 mM | 6.31 mM and 5.04 mM and 6.23 mM | 0.00 mM | Production amount of L-tert-leucine [7]: 7.8 mM; Production amount of L-amino acid [10, 11]: 1.6 mM
18 | CC(C)(C)[C@H](N)C(=O)O [L-tert-Leucine] |  |  |  |  |  | Production amount of L-amino acid [10, 11]: 0.06 mM
19 | O=C(O)C(=O)CS [Mercaptopyruvate] | 0.008 | 0.012 |  |  |  | 
20 | CC(C)(C)C(=O)C(=O)O [Trimethylpyruvate] |  |  |  |  |  | Concentration of 2-oxobutyrate [1]: 5.83 mM; equilibrium constant of the reaction by the branched-chain transaminase ([1]; trimethylpyruvate and L-homoalanine as substrates): 0.16
21 | O=C(O)C(=O)CO [β-Hydroxypyruvate] | 0.066 | 0.183 |  |  |  | 
